Patent US20040209933A1, “Oxazole derivatives” (priority 2003, published 2004)

Tests used:
QG56 cells = assay: BrdU/Hoechst quenching assay, cell kinetic FACS analysis (G1 cell cycle arrest); type: cell-based; conditions: incubation for 24 h; for percentage of QG56 cells arrested in the first G1 phase, compared with reference compound: 3 μM; for n-fold increase of cells arrested in first cell cycle: compound concentration 3 μM, QG56 squamous cell carcinoma cells, Control (DMSO) = 1
Protocol: A squamous cell carcinoma cell line (e.g. QG 56) was cultivated in DMEM/10%FCS/2 mM glutamine at about 60% confluency. Exponentially growing cells were seeded at a density of 1×10^4 cells/cm^2 in 2 ml of medium per 6 wells. After 24 hours medium was replaced and compounds were added.
For the BrdU/Hoechst quenching assay the media were supplemented with […] and deoxycytidine, respectively. All experiments were performed in 6 well culture plates.
The cell culture setup is as described above. All compounds were dissolved in DMSO at a concentration of 10 mM.
Adherent cells were harvested at 24 h by trypsinization and cells from the supernatant were added to the population.
After centrifugation cell pellets were resuspended at 1-10×10^5 cells/ml in DNA-staining puffer (100 mM Tris pH 7.4, 154 mM NaCl, 1 mM CaCl2, 0.5 mM MgCl2, 0.2% BSA, 0.1% NP40) supplemented with 5 ug/ml RNAse A and 1.5 ug/ml Hoechst 33258. After 15 min propidium iodide was added to a final concentration of 1.5 ug/ml for another 15 min. The fluorochrome labeled cells were analysed on a flow cytometer (BD LSR) applying dual laser excitation (UV and 488 nm).
Compounds of Example 1, Example 2 and Example 4 were tested at a concentration of 3 μM.

Row | Compound | melting point [°C] | percentage of QG56 cells arrested in the first G1 phase, compared with reference compound (QG56 cells) | n-fold increase of cells arrested in first cell cycle (QG56 cells) [n-fold]
1 | COc1ccc(C=Cc2nc(COc3ccc(CCCCn4ccnn4)cc3)co2)cc1 [Example 1, 1-[4-(4-{2-[2-(4-Methoxy-phenyl)-vinyl]-oxazol-4-ylmethoxy}-phenyl)-butyl]-1H-[1,2,3]triazole] | 148 to 151 | higher percentage | 23.7
2 | FC(F)(F)c1ccc(C=Cc2nc(COc3ccc(CCCCn4ccnn4)cc3)co2)cc1 [reference compound, 1-[4-(4-{2-[2-(4-Trifluoromethyl-phenyl)-vinyl]-oxazol-4-ylmethoxy}-phenyl)-butyl]-1H-[1,2,3]triazole, reference compound] | – | – | 17.2
3 | C(=Cc1nc(COc2ccc(CCCCn3ccnn3)cc2)co1)c1ccc2c(c1)OCO2 [Example 4, 1-(4-{4-[2-(2-Benzo[1,3]dioxol-5-yl-vinyl)-oxazol-4-ylmethoxy]-phenyl}-butyl)-1H-[1,2,3]triazole] | – | higher percentage | 17.9

Further lines, with some results ahead:

Row | melting point [°C] | Compound | percentage of QG56 cells arrested in the first G1 phase, compared with reference compound (QG56 cells) | n-fold increase of cells arrested in first cell cycle (QG56 cells) [n-fold]
4 | 138 to 140 | FC(F)(F)Oc1ccc(C=Cc2nc(COc3ccc(CCCCn4ccnn4)cc3)co2)cc1 [Example 2, 1-[4-(4-{2-[2-(4-Trifluoromethoxy-phenyl)-vinyl]-oxazol-4-ylmethoxy}-phenyl)-butyl]-1H-[1,2,3]triazole] | higher percentage | 19.2
5 | 144 to 145 | FC(F)(F)Sc1ccc(C=Cc2nc(COc3ccc(CCCCn4ccnn4)cc3)co2)cc1 [Example 5, 1-[4-(4-{2-[2-(4-Trifluoromethylsulfanyl-phenyl)-vinyl]-oxazol-4-ylmethoxy}-phenyl)-butyl]-1H-[1,2,3]triazole] | – | –
